Test results published in PMC4965013, “Open Source Drug Discovery with the Malaria Box Compound Collection for Neglected Diseases and Beyond” (PLoS Pathogens, 2016).

Legend:
[1] = system: P. falciparum 3D7 trophozoites; experiment: Metabolomic fingerprint profiling LC-MS; format: cell-based, Plasmodium falciparum; design: UDP-D-glucose / ADP-D-glucose: unit not given here; settings: for Acetyllysine / N-acetyl-L-ornithine / N-carbamoyl-L-aspartate / NADPH / dAMP / dCMP / dTDP / dTMP / dTTP / dihydroorotate / orotate / DLH / DLS/SDL/SID / PD / PEE / PVNF / 3-phosphoglycerate / ADP-D-glucose / ATP / CDP / D-sedoheptulose-1/7-phosphate / FAD / GMP / NAD+ / NADP+ / Octoluse Bisphosphate / Pyroglutamic acid / UDP-D-glucose / UDP-D-glucuronate / UDP-N-acetyl-glucosamine / UDP / UMP / UTP / a-ketoglutarate / citrate/isocitrate / cytidine / dATP / dGMP/AMP / fumarate / glucose-1/6-phosphate / glycerate / guanine / guanosine / hypoxanthine / indole / inosine / nicotinate / ornithine / phosphoenolpyruvate / pyruvate / ribose-phosphate / sarcosine/alanine / sn-glycerol-3-phosphate / succinate/methylmalonic acid / uridine / xanthosine: S2 Table Metabolomics; for Acetyllysine: metabolite Acetyllysine; for N-acetyl-L-ornithine: metabolite N-acetyl-L-ornithine; for N-carbamoyl-L-aspartate: metabolite N-carbamoyl-L-aspartate; for NADPH: metabolite NADPH; for dAMP: metabolite dAMP; for dCMP: metabolite dCMP; for dTDP: metabolite dTDP; for dTMP: metabolite dTMP; for dTTP: metabolite dTTP; for dihydroorotate: metabolite dihydroorotate; for orotate: metabolite orotate; for DLH: peptide DLH; for DLS/SDL/SID: peptide DLS/SDL/SID; for PD: peptide PD; for PEE: peptide PEE; for PVNF: peptide PVNF; for 3-phosphoglycerate: metabolite 3-phosphoglycerate; for ADP-D-glucose: metabolite ADP-D-glucose; for ATP: metabolite ATP; for CDP: metabolite CDP; for CDP / D-sedoheptulose-1/7-phosphate / GMP / Octoluse Bisphosphate / UDP / UMP / UTP / citrate/isocitrate / dGMP/AMP / fumarate / glucose-1/6-phosphate / glycerate / guanine / guanosine / inosine / pyruvate / sarcosine/alanine / succinate/methylmalonic acid / uridine / xanthosine: change in metabolite level after compound treatment; for D-sedoheptulose-1/7-phosphate: metabolite D-sedoheptulose-1/7-phosphate; for FAD: metabolite FAD; for GMP: metabolite GMP; for NAD+: metabolite NAD+; for NADP+: metabolite NADP+; for Octoluse Bisphosphate: metabolite Octoluse Bisphosphate; for Pyroglutamic acid: metabolite Pyroglutamic acid; for UDP-D-glucose: metabolite UDP-D-glucose; for UDP-D-glucuronate: metabolite UDP-D-glucuronate; for UDP-N-acetyl-glucosamine: metabolite UDP-N-acetyl-glucosamine; for UDP: metabolite UDP; for UMP: metabolite UMP; for UTP: metabolite UTP; for a-ketoglutarate: metabolite a-ketoglutarate; for citrate/isocitrate: metabolite citrate/isocitrate; for cytidine: metabolite cytidine; for dATP: metabolite dATP; for dGMP/AMP: metabolite dGMP/AMP; for fumarate: metabolite fumarate; for glucose-1/6-phosphate: metabolite glucose-1/6-phosphate; for glycerate: metabolite glycerate; for guanine: metabolite guanine; for guanosine: metabolite guanosine; for hypoxanthine: metabolite hypoxanthine; for indole: metabolite indole; for inosine: metabolite inosine; for 2_3-Diphosphoglyceric acid / 4-phosphopantothenate / 6-phospho-D-gluconate / FMN / IMP / Pyrophosphate / Sedoheptoluse bisphosphate / cyclic-AMP / glutathione disulfide / lactate / myo-inositol: metabolite level change after treatment; for nicotinate: metabolite nicotinate; for ornithine: metabolite ornithine; for phosphoenolpyruvate: metabolite phosphoenolpyruvate; for pyruvate: metabolite pyruvate; for ribose-phosphate: metabolite ribose-phosphate; for sarcosine/alanine: metabolite sarcosine/alanine; for sn-glycerol-3-phosphate: metabolite sn-glycerol-3-phosphate; for succinate/methylmalonic acid: metabolite succinate/methylmalonic acid; for uridine: metabolite uridine; for xanthosine: metabolite xanthosine
P. falciparum = experiment: EC50 listed in S2 Table Metabolomics (used to set the concentration tested); format: cell-based; settings: Plasmodium falciparum; EC50 used for Factor_XEC50 in metabolomics; read-out: EC50_nM

Molecule `Cc1cc(C=C2SC(=Nc3ccccc3)N(C3CCCC3)C2=O)c(C)n1-c1ccc(Cl)cc1` [MMV666688] has an Acetyllysine [1] of -0.1624, a N-acetyl-L-ornithine [1] of -0.0421 and a N-carbamoyl-L-aspartate [1] of 1.4864. For the same molecule, the NADPH [1] was 0.2408, the dAMP [1] was 0.03218 and the dCMP [1] was -0.069. The dTDP [1] was -0.4979, the dTMP [1] was -0.4157 and the dTTP [1] was -0.4815. The dihydroorotate [1] was 2.242, the orotate [1] was -0.3391 and the DLH [1] was -0.1014. For the same molecule, the DLS/SDL/SID [1] was -0.07676, the PD [1] was 0.01194 and the PEE [1] was -0.1091. The PVNF [1] was -0.1399, the 3-phosphoglycerate [1] was -0.02892 and the ADP-D-glucose [1] was -0.07639. The ATP [1] was -0.1967, the CDP [1] was -0.456 and the D-sedoheptulose-1/7-phosphate [1] was -0.2168. For the same molecule, the FAD [1] was -0.003318, the GMP [1] was 0.2544 and the “NAD+” value [1] was -0.2173. For the same molecule, the “NADP+” value [1] was -0.08704, the “Octoluse Bisphosphate” value [1] was -0.1579 and the Pyroglutamic acid [1] was 0.04307. For the same molecule, the UDP-D-glucose [1] was -0.04445, the UDP-D-glucuronate [1] was -0.08539 and the UDP-N-acetyl-glucosamine [1] was -0.1189. The UDP [1] was -0.6253, the UMP [1] was -0.03143 and the UTP [1] was -0.1882. For the same molecule, the a-ketoglutarate [1] was 0.009693, the citrate/isocitrate [1] was -0.05943 and the cytidine [1] was 0.03268. The dATP [1] was 0.7542, the dGMP/AMP [1] was -0.3421 and the fumarate [1] was -0.03259. It also gave a glucose-1/6-phosphate [1] of 0.01665, a glycerate [1] of 0.07227 and a guanine [1] of 0.07709. It also gave a guanosine [1] of 0.1849, a hypoxanthine [1] of 0.08201 and an indole [1] of 0.1358. It also gave an inosine [1] of 0.04909, a 2_3-Diphosphoglyceric acid [1] of -0.2563 and a 4-phosphopantothenate [1] of -0.1327. For the same molecule, the 6-phospho-D-gluconate [1] was -0.08404, the FMN [1] was -0.1061 and the IMP [1] was -0.002655. The Pyrophosphate [1] was 0.3465, the Sedoheptoluse bisphosphate [1] was -0.1911 and the cyclic-AMP [1] was -0.1214. The glutathione disulfide [1] was -0.05112, the lactate [1] was 0.01618 and the myo-inositol [1] was 0.01299. The nicotinate [1] was -0.0155, the ornithine [1] was -0.1088 and the phosphoenolpyruvate [1] was -0.02123. For the same molecule, the pyruvate [1] was 0.008296, the ribose-phosphate [1] was -0.004186 and the sarcosine/alanine [1] was -0.1822. The sn-glycerol-3-phosphate [1] was 0.09746, the succinate/methylmalonic acid [1] was -0.05454 and the uridine [1] was -0.08058. For the same molecule, the xanthosine [1] was 0.111 and the EC50 (P. falciparum) was 263 nM.

`CCOC(=O)c1c(C)n(-c2ccc(Cl)cc2)c2ccc(OC(=O)C=Cc3ccccc3)cc12` [MMV666600] gave an Acetyllysine [1] of 0.2658, a N-acetyl-L-ornithine [1] of 0.3826 and a N-carbamoyl-L-aspartate [1] of 0.5043. For the same molecule, the NADPH [1] was -0.1791, the dAMP [1] was 0.1797 and the dCMP [1] was 0.7303. The dTDP [1] was 0.6846, the dTMP [1] was 0.3563 and the dTTP [1] was 0.1062. The dihydroorotate [1] was 0.2265, the orotate [1] was 0.0746 and the DLH [1] was 0.4837. It also gave a DLS/SDL/SID [1] of 0.1278, a PD [1] of 0.2139 and a PEE [1] of 0.4962. It also gave a PVNF [1] of 0.206, a 3-phosphoglycerate [1] of 0.1223 and an ADP-D-glucose [1] of 0.3003. It also gave an ATP [1] of 0.3662, a CDP [1] of 0.7598 and a D-sedoheptulose-1/7-phosphate [1] of 0.476. The FAD [1] was 0.1354, the GMP [1] was -0.291 and the “NAD+” value [1] was 0.8191. For the same molecule, the “NADP+” value [1] was 0.2752, the “Octoluse Bisphosphate” value [1] was 0.3013 and the Pyroglutamic acid [1] was 0.03669. For the same molecule, the UDP-D-glucose [1] was 0.1154, the UDP-D-glucuronate [1] was 0.1408 and the UDP-N-acetyl-glucosamine [1] was 0.05839. The UDP [1] was 0.7125, the UMP [1] was 0.02013 and the UTP [1] was 0.206. It also gave an a-ketoglutarate [1] of -0.01449, a citrate/isocitrate [1] of 0.5294 and a cytidine [1] of -0.3168. For the same molecule, the dATP [1] was 0.2753, the dGMP/AMP [1] was 0.4942 and the fumarate [1] was 0.3444. It also gave a glucose-1/6-phosphate [1] of 0.5114, a glycerate [1] of 0.0963 and a guanine [1] of 0.1348. For the same molecule, the guanosine [1] was -0.1252, the hypoxanthine [1] was 0.2037 and the indole [1] was -0.0001746. It also gave an inosine [1] of 0.0653, a 2_3-Diphosphoglyceric acid [1] of 0.1463 and a 4-phosphopantothenate [1] of 0.3013. It also gave a 6-phospho-D-gluconate [1] of 0.08781, an FMN [1] of -0.2862 and an IMP [1] of 0.3406. For the same molecule, the Pyrophosphate [1] was 0.1816, the Sedoheptoluse bisphosphate [1] was 0.1719 and the cyclic-AMP [1] was 0.1868. The glutathione disulfide [1] was 0.1725, the lactate [1] was 0.1409 and the myo-inositol [1] was -0.8322. It also gave a nicotinate [1] of 0.07374, an ornithine [1] of 0.01544 and a phosphoenolpyruvate [1] of 0.01685. For the same molecule, the pyruvate [1] was -0.07405, the ribose-phosphate [1] was 0.1875 and the sarcosine/alanine [1] was -0.13. It also gave a sn-glycerol-3-phosphate [1] of -0.02611, a succinate/methylmalonic acid [1] of 0.1082 and a uridine [1] of 0.1838. It also gave a xanthosine [1] of 0.13 and an EC50 (P. falciparum) of 216 nM.
